Laboratory results taken from patent US11058680B2, “Combinations of opioid/TLR4 antagonists and acetaminophen for use in the treatment of emotional pain and insomnia” (Allodynic Threapeutics, LLC, priority 2016, dated 2021).

What was measured:
[1] = tested on: patient with post herpetic neuralgia, chronic lower back pain and anger with spouse; experiment: Example 8 case study; format: in vivo, human; conditions: naltrexone 5 mg/clonidine 0.025 mg twice daily; naltrexone 5 mg twice daily; naltrexone 2.25 mg and acetaminophen 325 mg four times daily
[2] = tested on: patient with chronic migraines, lower back pain and anger with spouse; experiment: Example 9 case study; format: in vivo, human; conditions: naltrexone 5 mg twice daily for 14 months
Excerpt: For 30 years they and their retired spouse were always together.

[3] = tested on: patient with lower back and leg pain and emotional pain due to separation from a child; experiment: Example 12 case study, patient diary
insomnia = experiment: Migraine open-label pilot study: insomnia on 4-point scale, night before vs. night after dosing (insomnia-free, insomnia intensity); format: in vivo, human; conditions: for Change in insomnia-free / Change in insomnia-intensity: baseline to night after dosing; for Insomnia-intensity at baseline / Insomnia-intensity at night after dosing: sum of severity of all patients
Experimental: Sixteen unique patients were enrolled in an open phase pilot study for the acute treatment of migraine attacks, insomnia, and emotional pain. Of the sixteen patients, eleven were evaluated for one migraine attack, one for two attacks, two for four attacks, one for six attacks, and one for fourteen attacks. A total of forty-one […] treatments were evaluated. Patients received a single dose of one of the following treatment options:
The majority of the patients remained in the clinic for observation for 2 hours after dosing. They completed headache diary assessments immediately before and after dosing at time points: 7, 15, and 30 minutes; and 1, 1.5, 2, 3, 6, 12, 24, and 48 hours. Headache pain was assessed on a 4-point scale (0=none; 1=mild; 2=moderate; 3=severe). The assessment of photophobia, phonophobia, nausea, and neck/shoulder pain was assessed as present or absent. The assessment of emotional pain was recorded on a 4-point scale (0=none, 1=mild, 2=moderate, 3=severe). The assessment of difficulty sleeping or falling asleep (insomnia) was assessed on a 4-point scale (0=none, 1=mild, 2=moderate, 3=severe) at baseline, for the night before treatment and for the following nights at 24, and 48 hours. Patients recorded side effects severity at each time point. Patients recorded the time of the first rescue medication dose and all additional headache medications used within 48 hours. Patients were required to stay awake to record their assessments in the first 2 hours, sleeping was permitted thereafter. While asleep, assessments were completed according to patients' best estimation. For data analysis, it was assumed that a migraine attack is a unique patient. Patients were asked to specify (yes or no answer) to whether they experienced emotional pain symptoms such as: hurt feelings, sadness, fear, or anger. Patients who replied positively to having emotional pain were asked to specify the cause into one of the following options: relationship, work/school, money/debt, health, or loss/grief.

[4] = Ibuprofen 800 mg T.I.D. PRN 2006-2010, Naltrexone 2.25 mg Q.I.D./Clonidine 0.025 mg Q.I.D. 2010-2015, APAP 325 mg Q.I.D. Jun. 29-Jul. 6, 2015, Naltrexone 2.5 mg Q.I.D. to Jul. 8, 2015, Naltrexone 2.25 mg/APAP 325 mg Q.I.D. Jul. 9-Oct. 4, 2015
[5] = NTX/APAP 2.25 mg/325 mg, NTX 2.25 mg
[6] = NTX/APAP 3.25 mg/325 mg, NTX 3.25 mg
[7] = night after dosing, NTX/APAP 2.25 mg/325 mg, NTX 2.25 mg
[8] = night after dosing, NTX/APAP 3.25 mg/325 mg, NTX 3.25 mg
[9] = night after dosing, NTX/APAP 5 mg/325 mg, NTX 5 mg
[10] = night after dosing, NTX/APAP […]325 mg, NTX 1.5 mg
[11] = night after dosing, naltrexone/acetaminophen 2.25 mg/325 mg (N=21), naltrexone 2.25 mg (N=9)

O=C1CC[C@@]2(O)[C@H]3Cc4ccc(O)c5c4[C@@]2(CCN3CC2CC2)[C@H]1O5 [naltrexone]
mean average pain intensity [1]: 1.5 /10 | lower back pain diminished by [2]: 90% | migraine intensity and frequency lessened by [2]: 90% | API, average pain intensity (0-10 NRS) [3, 4]: 4 | Insomnia (0-10 NRS) [3, 4]: 6.5 | PRSI, Pain Related Sleep Interference (0-10 NRS) [3, 4]: 5.5 | WEP, Worst Emotional Pain (0-10 NRS) [3, 4]: 5.5 | WPI, Worst Pain Intensity (0-10 NRS) [3, 4]: 5 | PGIC (1-7 Likert) ([3]; Naltrexone 2.25 mg Q.I.D./Clonidine 0.025 mg Q.I.D. 2010-2015, APAP 325 mg Q.I.D. Jun. 29-Jul. 6, 2015, Naltrexone 2.5 mg Q.I.D. to Jul. 8, 2015, Naltrexone 2.25 mg/APAP 325 mg Q.I.D. Jul. 9-Oct. 4, 2015): 6 | emotional pain due to separation from child (patient report) ([3]; naltrexone/clonidine, acetaminophen 325 mg four times daily 5 days, naltrexone alone 12 days, naltrexone 2.25 mg and acetaminophen 325 mg four times daily almost three months): same level of emotional pain | Insomnia-free (insomnia; 24 h, combined doses): 11 (69) n (%) | Insomnia-free (insomnia; 24 h time point = night following the day of initial dosing, NTX/APAP 2.25 mg/325 mg, NTX 2.25 mg): 6 (66) n (%) | Insomnia-free (insomnia; 24 h time point = night following the day of initial dosing, NTX/APAP 3.25 mg/325 mg, NTX 3.25 mg): 2 (66) n (%) | Insomnia-free (insomnia; 24 h time point = night following the day of initial dosing, NTX/APAP 5 mg/325 mg, NTX 5 mg): 1 (100) n (%) | Insomnia-free (insomnia; 24 h time point = night following the day of initial dosing, NTX/APAP […]325 mg, NTX 1.5 mg): 2 (66) n (%) | Insomnia-free (insomnia; 48 h, NTX/APAP 2.25 mg/325 mg, NTX 2.25 mg): 8 (88) n (%) | Insomnia-free (insomnia; 48 h, NTX/APAP 5 mg/325 mg, NTX 5 mg): 1 (100) n (%) | Insomnia-free (insomnia; 48 h, combined doses): 2 (13) n (%) | Change in insomnia-free (insomnia; [5]): +2 (22) n (%) | Change in insomnia-intensity (insomnia; [5]): −10 (−111) n (%) | Change in insomnia-free (insomnia; [6]): +1 n (%) | Change in insomnia-intensity (insomnia; [6]): −1 (−50) n (%) | Change in insomnia-free (insomnia; NTX/APAP 5 mg/325 mg, NTX 5 mg): 0 n (%) | Change in insomnia-intensity (insomnia; NTX/APAP 5 mg/325 mg, NTX 5 mg): +2 (+200) n (%) | Change in insomnia-free (insomnia; NTX/APAP […]325 mg, NTX 1.5 mg): 0 n (%) | Change in insomnia-intensity (insomnia; NTX/APAP […]325 mg, NTX 1.5 mg): −2 (−66) n (%) | Insomnia-free at baseline (insomnia; [5]): 4 (44) n (%) | Insomnia-free at baseline (insomnia; [6]): 1 n (%) | Insomnia-free at baseline (insomnia; NTX/APAP 5 mg/325 mg, NTX 5 mg): 0 n (%) | Insomnia-free at baseline (insomnia; NTX/APAP […]325 mg, NTX 1.5 mg): 2 n (%) | Insomnia-free at night after dosing (insomnia; [7]): 6 (66) n (%) | Insomnia-free at night after dosing (insomnia; [8]): 2 (66) n (%) | Insomnia-free at night after dosing (insomnia; [9]): 0 n (%) | Insomnia-free at night after dosing (insomnia; [10]): 2 n (%) | insomnia intensity change from baseline (insomnia; [11]): −111% | insomnia-free change from baseline (insomnia; [11]): 22% | insomnia intensity improved by (insomnia; night before vs. night after treatment, naltrexone 2.25 mg (n=9)): 111% | Insomnia-intensity at baseline (insomnia; [5]): 14 (155) n (%) | Insomnia-intensity at baseline (insomnia; [6]): 2 n (%) | Insomnia-intensity at baseline (insomnia; NTX/APAP 5 mg/325 mg, NTX 5 mg): 1 n (%) | Insomnia-intensity at baseline (insomnia; NTX/APAP […]325 mg, NTX 1.5 mg): 3 n (%) | Insomnia-intensity at night after dosing (insomnia; [7]): 4 (44) n (%) | Insomnia-intensity at night after dosing (insomnia; [8]): 1 n (%) | Insomnia-intensity at night after dosing (insomnia; [9]): 3 n (%) | Insomnia-intensity at night after dosing (insomnia; [10]): 1 n (%)
